Numbers after ± are expanded uncertainties.
Assay: relative permittivity at zero frequency (dimensionless)
Settings: Parallel plate capacitor

Structure (SMILES): COC [dimethyl ether]
- relative permittivity at zero frequency (343.2 K, 33200 kPa, Liquid): 4.84 ± 0.03
- relative permittivity at zero frequency (353.1 K, 40 kPa, Gas): 1.01 ± 0.02
- relative permittivity at zero frequency (353.1 K, 100 kPa, Gas): 1.012 ± 0.02
- relative permittivity at zero frequency (353.1 K, 220 kPa, Gas): 1.017 ± 0.02
- relative permittivity at zero frequency (353.1 K, 480 kPa, Gas): 1.03 ± 0.02
- relative permittivity at zero frequency (353.1 K, 530 kPa, Gas): 1.033 ± 0.02
- relative permittivity at zero frequency (353.1 K, 580 kPa, Gas): 1.036 ± 0.02
- relative permittivity at zero frequency (353.1 K, 680 kPa, Gas): 1.041 ± 0.02
- relative permittivity at zero frequency (353.1 K, 780 kPa, Gas): 1.047 ± 0.02
- relative permittivity at zero frequency (353.1 K, 870 kPa, Gas): 1.052 ± 0.02
- relative permittivity at zero frequency (353.1 K, 970 kPa, Gas): 1.058 ± 0.02
- relative permittivity at zero frequency (353.1 K, 1070 kPa, Gas): 1.064 ± 0.02
- relative permittivity at zero frequency (353.1 K, 1180 kPa, Gas): 1.071 ± 0.02
- relative permittivity at zero frequency (353.1 K, 1270 kPa, Gas): 1.078 ± 0.02
- relative permittivity at zero frequency (353.1 K, 1340 kPa, Gas): 1.082 ± 0.02
- relative permittivity at zero frequency (353.1 K, 1440 kPa, Gas): 1.09 ± 0.02
- relative permittivity at zero frequency (353.1 K, 1540 kPa, Gas): 1.098 ± 0.02
- relative permittivity at zero frequency (353.1 K, 1700 kPa, Gas): 1.109 ± 0.021
- relative permittivity at zero frequency (353.1 K, 1890 kPa, Gas): 1.128 ± 0.021
- relative permittivity at zero frequency (353.1 K, 2150 kPa, Gas): 1.178 ± 0.022
- relative permittivity at zero frequency (353.1 K, 2200 kPa, Liquid): 3.92 ± 0.04
- relative permittivity at zero frequency (353.1 K, 4000 kPa, Liquid): 3.98 ± 0.04
- relative permittivity at zero frequency (353.1 K, 6400 kPa, Liquid): 4.07 ± 0.04
- relative permittivity at zero frequency (353.1 K, 8200 kPa, Liquid): 4.13 ± 0.03
- relative permittivity at zero frequency (353.1 K, 10200 kPa, Liquid): 4.19 ± 0.03
- relative permittivity at zero frequency (353.1 K, 12200 kPa, Liquid): 4.24 ± 0.03
- relative permittivity at zero frequency (353.1 K, 14200 kPa, Liquid): 4.29 ± 0.03
- relative permittivity at zero frequency (353.1 K, 16100 kPa, Liquid): 4.33 ± 0.03
- relative permittivity at zero frequency (353.1 K, 18200 kPa, Liquid): 4.38 ± 0.03
- relative permittivity at zero frequency (353.1 K, 20000 kPa, Liquid): 4.42 ± 0.03
- relative permittivity at zero frequency (353.1 K, 21800 kPa, Liquid): 4.45 ± 0.03
- relative permittivity at zero frequency (353.1 K, 24000 kPa, Liquid): 4.49 ± 0.03
- relative permittivity at zero frequency (353.1 K, 25800 kPa, Liquid): 4.52 ± 0.03
- relative permittivity at zero frequency (353.1 K, 27700 kPa, Liquid): 4.55 ± 0.03
- relative permittivity at zero frequency (353.1 K, 29800 kPa, Liquid): 4.58 ± 0.03
- relative permittivity at zero frequency (363.4 K, 850 kPa, Gas): 1.048 ± 0.02
- relative permittivity at zero frequency (363.4 K, 1050 kPa, Gas): 1.059 ± 0.02
- relative permittivity at zero frequency (363.4 K, 1200 kPa, Gas): 1.068 ± 0.02
- relative permittivity at zero frequency (363.4 K, 1410 kPa, Gas): 1.081 ± 0.02
- relative permittivity at zero frequency (363.4 K, 1580 kPa, Gas): 1.092 ± 0.02
- relative permittivity at zero frequency (363.4 K, 1750 kPa, Gas): 1.104 ± 0.02
- relative permittivity at zero frequency (363.4 K, 1890 kPa, Gas): 1.116 ± 0.02
- relative permittivity at zero frequency (363.4 K, 2070 kPa, Gas): 1.131 ± 0.021
- relative permittivity at zero frequency (363.4 K, 2280 kPa, Gas): 1.15 ± 0.021
- relative permittivity at zero frequency (363.4 K, 2800 kPa, Liquid): 3.63 ± 0.04
- relative permittivity at zero frequency (363.4 K, 4200 kPa, Liquid): 3.71 ± 0.04
- relative permittivity at zero frequency (363.4 K, 6200 kPa, Liquid): 3.8 ± 0.04
- relative permittivity at zero frequency (363.4 K, 8000 kPa, Liquid): 3.88 ± 0.04
- relative permittivity at zero frequency (363.4 K, 10200 kPa, Liquid): 3.95 ± 0.03
- relative permittivity at zero frequency (363.4 K, 12200 kPa, Liquid): 4.01 ± 0.03
- relative permittivity at zero frequency (363.4 K, 14200 kPa, Liquid): 4.06 ± 0.03
- relative permittivity at zero frequency (363.4 K, 16000 kPa, Liquid): 4.11 ± 0.03
- relative permittivity at zero frequency (363.4 K, 18000 kPa, Liquid): 4.16 ± 0.03
- relative permittivity at zero frequency (363.4 K, 20000 kPa, Liquid): 4.2 ± 0.03
- relative permittivity at zero frequency (363.4 K, 22000 kPa, Liquid): 4.24 ± 0.03
- relative permittivity at zero frequency (363.4 K, 24000 kPa, Liquid): 4.28 ± 0.03
- relative permittivity at zero frequency (363.4 K, 26000 kPa, Liquid): 4.31 ± 0.03
- relative permittivity at zero frequency (363.4 K, 28000 kPa, Liquid): 4.35 ± 0.03
- relative permittivity at zero frequency (363.4 K, 30500 kPa, Liquid): 4.4 ± 0.03
- relative permittivity at zero frequency (372.9 K, 3400 kPa, Liquid): 3.38 ± 0.05
- relative permittivity at zero frequency (372.9 K, 4200 kPa, Liquid): 3.44 ± 0.05
- relative permittivity at zero frequency (372.9 K, 6100 kPa, Liquid): 3.57 ± 0.04
- relative permittivity at zero frequency (372.9 K, 8300 kPa, Liquid): 3.66 ± 0.03
- relative permittivity at zero frequency (372.9 K, 10200 kPa, Liquid): 3.73 ± 0.03
- relative permittivity at zero frequency (372.9 K, 12200 kPa, Liquid): 3.81 ± 0.03
- relative permittivity at zero frequency (372.9 K, 14400 kPa, Liquid): 3.88 ± 0.03
- relative permittivity at zero frequency (372.9 K, 16200 kPa, Liquid): 3.91 ± 0.03
- relative permittivity at zero frequency (372.9 K, 18300 kPa, Liquid): 3.96 ± 0.03
- relative permittivity at zero frequency (372.9 K, 20000 kPa, Liquid): 4 ± 0.03
- relative permittivity at zero frequency (372.9 K, 22300 kPa, Liquid): 4.05 ± 0.03
- relative permittivity at zero frequency (372.9 K, 24100 kPa, Liquid): 4.09 ± 0.03
- relative permittivity at zero frequency (372.9 K, 26200 kPa, Liquid): 4.14 ± 0.03
- relative permittivity at zero frequency (372.9 K, 27800 kPa, Liquid): 4.16 ± 0.03
- relative permittivity at zero frequency (372.9 K, 29200 kPa, Liquid): 4.18 ± 0.03
- relative permittivity at zero frequency (382.9 K, 4000 kPa, Liquid): 3.08 ± 0.06
- relative permittivity at zero frequency (382.9 K, 6200 kPa, Liquid): 3.31 ± 0.05
- relative permittivity at zero frequency (382.9 K, 8100 kPa, Liquid): 3.43 ± 0.04
- relative permittivity at zero frequency (382.9 K, 10000 kPa, Liquid): 3.53 ± 0.03
- relative permittivity at zero frequency (382.9 K, 12300 kPa, Liquid): 3.62 ± 0.03
- relative permittivity at zero frequency (382.9 K, 14200 kPa, Liquid): 3.68 ± 0.03
- relative permittivity at zero frequency (382.9 K, 16100 kPa, Liquid): 3.74 ± 0.03
- relative permittivity at zero frequency (382.9 K, 18000 kPa, Liquid): 3.79 ± 0.03
- relative permittivity at zero frequency (382.9 K, 20000 kPa, Liquid): 3.84 ± 0.03
- relative permittivity at zero frequency (382.9 K, 22000 kPa, Liquid): 3.89 ± 0.03
- relative permittivity at zero frequency (382.9 K, 24000 kPa, Liquid): 3.93 ± 0.03
- relative permittivity at zero frequency (382.9 K, 26000 kPa, Liquid): 3.97 ± 0.03
- relative permittivity at zero frequency (382.9 K, 27900 kPa, Liquid): 4.01 ± 0.03
- relative permittivity at zero frequency (382.9 K, 30100 kPa, Liquid): 4.05 ± 0.03
- relative permittivity at zero frequency (393 K, 6200 kPa, Liquid): 3.01 ± 0.05
- relative permittivity at zero frequency (393 K, 8400 kPa, Liquid): 3.21 ± 0.05
- relative permittivity at zero frequency (393 K, 10000 kPa, Liquid): 3.3 ± 0.04
- relative permittivity at zero frequency (393 K, 12300 kPa, Liquid): 3.4 ± 0.03
- relative permittivity at zero frequency (393 K, 14200 kPa, Liquid): 3.47 ± 0.03
- relative permittivity at zero frequency (393 K, 16200 kPa, Liquid): 3.54 ± 0.02
- relative permittivity at zero frequency (393 K, 18200 kPa, Liquid): 3.6 ± 0.03
- relative permittivity at zero frequency (393 K, 20000 kPa, Liquid): 3.65 ± 0.03
- relative permittivity at zero frequency (393 K, 22000 kPa, Liquid): 3.7 ± 0.03
- relative permittivity at zero frequency (393 K, 24000 kPa, Liquid): 3.75 ± 0.03
- relative permittivity at zero frequency (393 K, 26000 kPa, Liquid): 3.79 ± 0.03
- relative permittivity at zero frequency (393 K, 27800 kPa, Liquid): 3.83 ± 0.03
- relative permittivity at zero frequency (393 K, 29500 kPa, Liquid): 3.86 ± 0.03
- relative permittivity at zero frequency (402.9 K, 6900 kPa, Fluid (supercritical or subcritical phases)): 2.75 ± 0.05
- relative permittivity at zero frequency (402.9 K, 8600 kPa, Fluid (supercritical or subcritical phases)): 2.96 ± 0.05
- relative permittivity at zero frequency (402.9 K, 10200 kPa, Fluid (supercritical or subcritical phases)): 3.08 ± 0.03
- relative permittivity at zero frequency (402.9 K, 12000 kPa, Fluid (supercritical or subcritical phases)): 3.19 ± 0.03
- relative permittivity at zero frequency (402.9 K, 14200 kPa, Fluid (supercritical or subcritical phases)): 3.28 ± 0.03
- relative permittivity at zero frequency (402.9 K, 16100 kPa, Fluid (supercritical or subcritical phases)): 3.35 ± 0.02
- relative permittivity at zero frequency (402.9 K, 18000 kPa, Fluid (supercritical or subcritical phases)): 3.4 ± 0.02
- relative permittivity at zero frequency (402.9 K, 20000 kPa, Fluid (supercritical or subcritical phases)): 3.47 ± 0.02
- relative permittivity at zero frequency (402.9 K, 21700 kPa, Fluid (supercritical or subcritical phases)): 3.51 ± 0.02
- relative permittivity at zero frequency (402.9 K, 23600 kPa, Fluid (supercritical or subcritical phases)): 3.55 ± 0.02
- relative permittivity at zero frequency (402.9 K, 25800 kPa, Fluid (supercritical or subcritical phases)): 3.61 ± 0.02
- relative permittivity at zero frequency (402.9 K, 27100 kPa, Fluid (supercritical or subcritical phases)): 3.64 ± 0.02
- relative permittivity at zero frequency (402.9 K, 29500 kPa, Fluid (supercritical or subcritical phases)): 3.68 ± 0.02

Source: the NIST ThermoML archive (doi:10.1021/je060283w)
